Assay results: PMC4368788, “Depsides: Lichen Metabolites Active against Hepatitis C Virus” (PLoS ONE, 2015)
Entries after “also recorded” stand apart in the source; their conditions may differ. Like-named read-outs stand apart in the source and are kept apart here.

Experiments:
HCVcc [1] = test: Anti-HCV activity: HCVcc expressing Renilla luciferase in Huh-7.5.1 cells, luciferase readout; assay type: cell-based, hepatitis C virus; conditions: for IC50: Hepatitis C virus, Huh-7.5.1 cells infected with HCVcc, 1 h preincubation then 48 h with virus, mean ± SEM, three experiments; for SI (selectivity index): ratio of CC50 to IC50; for Anti-HCV activity: HCVcc in Huh-7.5.1 cells, up to 100 μM
Protocol: (§1) Huh-7.5.1 cells were maintained in Dulbecco's modified Eagle's medium (DMEM) containing 4.5 g/l D-glucose, 4 mM L-glutamine (Life Technologies), supplemented with 100 units/mL penicillin (Life Technologies), 100 μg/mL streptomycin (Life Technologies), non-essential amino acids (Sigma-Aldrich), 1 mM Hepes (Life Technologies) and 10% heat-inactivated fetal calf serum (FCS, Hyclone). […] In cell viability and HCV in vitro propagation experiments, the final concentration of DMSO was systematically adjusted to 0.1%. We checked that this amount of DMSO had no effect on the biological cycle of HCVcc in vitro (data not shown).
(§2) HCVcc was generated from the FL-J6/JFH-5’C19Rluc2AUbi construct, a monocistronic, full-length HCV genome that expresses Renilla luciferase. It was produced and titrated as described elsewhere, except for the readout for luciferase activity measurement. Cell viability was evaluated with the Cell Proliferation Reagent WST-1 (Roche), according to the manufacturer’s instructions. Luciferase assays were performed according to the manufacturer’s instructions (Promega) and measurements were performed on a Centro XS3 LB960 luminometer (Berthold Technologies).
(§3) Cell viability and viral replication data from at least three independent experiments were analyzed. The IC50 values of the compounds were determined from dose-response curves generated with seven to 12 concentrations of each compound. Curves were fitted to the data points by nonlinear regression analysis and IC50 values were interpolated from the resulting curves with GraphPad Prism 5.00 software.
We evaluated the anti-HCV activity of the 10 atranorin-related compounds, using a virus grown in cell culture (HCVcc) with a modification of its genome resulting in expression of the Renilla luciferase reporter gene. […] These two compounds are known to interfere with the entry and replication steps of viral cycle, respectively. The maximum dose of each tested compound was 100 μM, because most of these molecules became insoluble in aqueous solution at higher concentrations. The first experimental procedure used involved the preincubation of human hepatic Huh-7.5.1 cells for 1 h with various doses of the molecules. The cells were then cultured in the presence of both the molecules tested and the virus, for an additional 48 h. At the end of the incubation period, we assessed cell viability and viral replication. This protocol made it possible to test the effects of molecules on both virus entry and replication. […] Remarkably, compound 6 tended to give a slightly, but reproducibly higher viability signal when used at high doses, with a peak at about 50 μM. […] At concentrations greater than 50 μM, cytotoxic effects emerged, as shown by the decrease of the viability signal.

Huh-7.5.1 cells [2] = test: in vitro; assay type: cell-based, human; conditions: for CC50: half-maximal cytotoxicity concentration, Huh-7.5.1 cells, mean ± SEM, maximum dose tested 100 μM; for CC50 / Effect on cell viability signal: 48 h; for Effect on cell viability signal: high doses, up to 100 μM
Protocol: as §1, with “0.1%.” for “0.1%. We checked that this amount of DMSO had no effect on the biological cycle of HCVcc in vitro (data not shown).”
as §2, §3
(§4) We evaluated the anti-HCV activity of the 10 atranorin-related compounds, using a virus grown in cell culture (HCVcc) with a modification of its genome resulting in expression of the Renilla luciferase reporter gene. […] These two compounds are known to interfere with the entry and replication steps of viral cycle, respectively. […] The first experimental procedure used involved the preincubation of human hepatic Huh-7.5.1 cells for 1 h with various doses of the molecules. The cells were then cultured in the presence of both the molecules tested and the virus, for an additional 48 h. At the end of the incubation period, we assessed cell viability and viral replication. This protocol made it possible to test the effects of molecules on both virus entry and replication.

in vitro = assay type: cell-based, human; conditions: human, mean ± SEM; for CC50 at 48 h: half-maximal cytotoxicity concentration, Huh-7.5.1 cells, maximum dose tested 100 μM; for viability at 48 h, 50 µM / viability at 48 h, 100 µM: percentage of vehicle (0.1% DMSO) control; for viability at 48 h, 10 µM: 10 μM (controls)
Protocol: as §1, with “0.1%.” for “0.1%. We checked that this amount of DMSO had no effect on the biological cycle of HCVcc in vitro (data not shown).”
as §2, §3, §4

[3] = Cell viability in the inoculation/replication (I, R, I/R) procedure; assay type: cell-based, human; conditions: human; I, R, I/R incubation conditions
Protocol: (§5) An experimental procedure was designed to determine the inhibitor class (entry or replication) to which compounds 1, 5 and 6 belonged. HCVcc were added to the cell culture during a limited time window (around 17 h). The cells were then washed to eliminate viruses from the inoculum and viral replication was allowed to take place for an additional 30 h. The selected compounds were present in the culture medium during inoculation (I), replication (R), or both these phases (inoculation and replication, I/R). […] In terms of antiviral activity, we expected to obtain two inhibition profiles for the luminescence signal, depending on the step of the viral lifecycle targeted by the drug (Fig. 4B). […] The inhibitory effect on the establishment of replication (R conditions) observed at high doses was probably due principally to the inhibition of new infection cycles initiated by virions produced by cells infected with the inoculum. A different profile was obtained for telaprevir. […] Its presence in the medium from inoculation onwards prevented the priming of the infection process at the viral polyprotein maturation step, which normally takes place after the translation of the HCV genome issued from the infecting virus. This maturation step is also repeated during the replication phase, for amplification of the viral genome and virion assembly. It is therefore not surprising that inhibition was strongest when telaprevir was present throughout the viral lifecycle (I/R), as there was probably an additive effect. […] The chemical group in this position seems to influence not only the potency of the molecule, but also its mechanism of action. Further studies are required to identify the processes involved because, for example, we cannot rule out a role in the inhibition of viral entry for compounds 5 and 6, even though they appeared to act as replication inhibitors in this experiment. It could be hypothesized that the replacement of a methyl or hydroxymethyl by an aldehyde group in position C-3 would lead to a loss of replication inhibition, but maintenance of the ability to inhibit viral entry.
(§6) Fig 4 Effects of compounds 1, 5 and 6 on cell viability and HCV propagation in vitro. One day after seeding at 50,000 cells/cm^2, Huh-7.5.1 cells were infected with HCVcc at a MOI ~ 0.03 for 17 h (inoculation phase: I). The inoculum was removed and cell cultures were washed before the addition of new medium and incubation for an additional 30 h (replication phase: R). […] (A) Cell viability and (B) viral replication were assessed at the end of the incubation period. Results are expressed as percentages (mean ± SEM; n = 3) of the mean values obtained for the respective control cultures, in which cells were incubated with vehicle (0.1% DMSO) alone.

HCVcc [4] = test: Targeted stage of HCV life cycle: compounds present during inoculation (I), replication (R) or both (I/R), luciferase readout; assay type: cell-based, hepatitis C virus; conditions: for Inhibition profile / step of HCV lifecycle targeted: compounds present during I (17 h), R (30 h) or I/R
Protocol: as §5
Fig 4 Effects of compounds 1, 5 and 6 on cell viability and HCV propagation in vitro. One day after seeding at 50,000 cells/cm^2, Huh-7.5.1 cells were infected with HCVcc at a MOI ~ 0.03 for 17 h (inoculation phase: I). The inoculum was removed and cell cultures were washed before the addition of new medium and incubation for an additional 30 h (replication phase: R). Compounds were present at various concentrations either during both phases (I/R: black circles and solid lines) or during only one phase (I: black squares and dotted lines; R: black triangles and dashed lines). (A) Cell viability and (B) viral replication were assessed at the end of the incubation period. Results are expressed as percentages (mean ± SEM; n = 3) of the mean values obtained for the respective control cultures, in which cells were incubated with vehicle (0.1% DMSO) alone.

[5] = Stability of the molecule in solution; assay type: physicochemical; conditions: even if dissolved immediately before use
Huh-7.5.1 cells [6] = test: Cell viability in the inoculation/replication (I, R, I/R) procedure; assay type: cell-based, human
Protocol: as §5, §6

[7] = percentage of vehicle control, n = 3

Row | Compound | IC50 (HCVcc [1]) | CC50 at 48 h (in vitro) | viability at 48 h, 50 µM (in vitro; n = 3) | viability at 48 h, 100 µM (in vitro; n = 3) | Inhibition profile / step of HCV lifecycle targeted (HCVcc [4]) | Effect on cell viability signal (Huh-7.5.1 cells [2]) | also measured
1 | COC(=O)c1c(C)cc(OC(=O)c2c(C)cc(O)c(CO)c2O)c(C)c1O [Compound 5, Methyl-8-hydroxy-4-O-demethylbarbatate] | 11.8 ± 1.1 µM | 106 µM | 88.4 ± 7.3% | 55.8 ± 5.9% | interfered with viral replication; also recorded: profiles typical of replication inhibitors |  | SI (selectivity index) (HCVcc [1]): 8.9; CC50 (Huh-7.5.1 cells [2]): 106 ± 7.3 µM; CC50 [3]: ~100 µM
2 | CCC[C@H](NC(=O)[C@@H]1[C@H]2CCC[C@H]2CN1C(=O)[C@@H](NC(=O)[C@@H](NC(=O)c1cnccn1)C1CCCCC1)C(C)(C)C)C(=O)C(=O)NC1CC1 [Telaprevir, telaprevir, reference compound] | 0.18 ± 0.02 µM |  |  |  | inhibitory action regardless of the experimental conditions (I or R) |  | viability at 48 h, 5 µM (in vitro; 5 μM (controls), percentage of vehicle control, n = 3): 101.9 ± 0.9%; viability at 48 h, 10 µM (in vitro; [7]): 94.1 ± 4%
3 | COC(=O)c1c(C)cc(O)c(C=O)c1O [Compound 10, methyl haematommate] | 55.5 ± 7.9 µM | > 100 µM | 88.1 ± 5.5% | 72.2 ± 2% |  | minimal loss of signal | 
4 | COC(=O)c1c(C)cc(OC(=O)c2c(C)cc(O)c(/C=C/C(C)=O)c2O)c(C)c1O [Compound 2, (E)-[3-hydroxy-4-(methoxycarbonyl)-2,5-dimethylphenyl]-2,4-dihydroxy-6-methyl-3-(3-oxobut-1-en-yl) benzoate] | 64.5 ± 26.5 µM | > 100 µM | 110 ± 5.9% | 107 ± 5.7% |  |  | melting point: 234 to 236 °C (dec.); Stability in solution [5]: instability of the molecule in solution
5 | COC(=O)c1c(C)cc(OC(=O)c2c(C)cc(O)c(C)c2O)c(C)c1O [Compound 6, Methyl-4-O-demethylbarbatate] | 13.3 ± 1.6 µM | > 100 µM | 145 ± 3.2% | 81.6 ± 20.6% | interfered with viral replication; also recorded: profiles typical of replication inhibitors |  | Concentration above which cytotoxic effects emerged (Huh-7.5.1 cells [2]; decrease of the viability signal): greater than 50 μM; Concentration of the peak of the higher viability signal (Huh-7.5.1 cells [2]; slightly higher viability signal at high doses, modest stimulation of cell proliferation): about 50 μM; Cytotoxicity at 100 μM (Huh-7.5.1 cells [6]; 100 μM, except in R conditions): induced some cytotoxicity
6 | COC(=O)c1c(C)cc(O)c(C)c1O [Compound 7, methyl-2,4-dihydroxy-3,6-dimethylbenzoate] | 50.6 ± 5 µM | > 100 µM | 101 ± 5.6% | 97.3 ± 6.2% |  |  | 
7 | COC(=O)c1c(C)cc(OC(=O)c2c(C)cc(O)cc2O)c(C)c1O [Compound 3, methyl-3’-methyllecanorate] | 25.4 ± 1.7 µM | 82 µM | 52.7 ± 0.6% | 63.1 ± 2.9% |  |  | SI (selectivity index) (HCVcc [1]): 3.2; CC50 (Huh-7.5.1 cells [2]): 81.9 ± 13.6 µM
8 | Cc1cc(O)c(C=O)c(O)c1 [Compound 9, atranol] | 40.3 ± 0.6 µM | > 100 µM | 91.1 ± 3.5% | 78.7 ± 2.3% |  | minimal loss of signal | 
9 | C#Cc1cccc(Nc2ncnc3cc(OCCOC)c(OCCOC)cc23)c1 [Erlotinib, erlotinib, reference compound] | 0.64 ± 0.18 µM |  |  |  | most efficient if present at least during the initial interaction between cells and viruses |  | viability at 48 h, 10 µM (in vitro; [7]): 86.5 ± 5.1%; Effect on cell viability (Huh-7.5.1 cells [6]): small anti-proliferative effect
10 | COC(=O)c1c(C)cc(OC(=O)c2c(C)cc(O)c(C(=O)O)c2O)c(C)c1O [Compound 4, cladonioidesin] | > 100 µM | > 100 µM | 104 ± 2.5% | 90.4 ± 3.4% |  | minimal loss of signal | Anti-HCV activity (HCVcc [1]): inactive
11 | COC(=O)c1c(C)cc(OC(=O)c2c(C)cc(O)c(C=O)c2O)c(C)c1O [Compound 1, atranorin] | 22.3 ± 8 µM | > 100 µM | 95.9 ± 4.5% | 91.8 ± 5.9% | inhibited only viral entry; also recorded: effects similar to those of erlotinib | minimal loss of signal | Effect on cell viability (Huh-7.5.1 cells [6]; regardless of incubation conditions (I, R, I/R)): no effect on cell viability; Inhibitory effect when present only during inoculation (HCVcc [4]; I condition only, up to 100 μM): no inhibitory effect
12 | COC(=O)c1c(C)cc(O)cc1O [Compound 8, methyl orsellinate] | ≥ 100 µM | > 100 µM | 106 ± 2.9% | 93.4 ± 4.2% |  | minimal loss of signal | Anti-HCV activity (HCVcc [1]): inactive
